In ChEMBL document CHEMBL1201862, “PubChem BioAssay data set” (2004):
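Dose response: 5 concentrations. Exposure: 48 h. Format: 96-well plates. Endpoint: linear interpolation; highest concentration if not reached. GI50 marks 50% less growth.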 Activity calls are given as the source filed them. Rule as the data show it: active = GI50 up to about 1.1 µM and inactive = higher.

How the values were obtained:
Assay in all cases: NCI tumour cell line growth inhibition, 48 h
CAKI-1 = tested on: CAKI-1
DU-145 = tested on: DU-145
EKVX = tested on: EKVX
HCC 2998 = tested on: HCC 2998
HCT-15 = tested on: HCT-15
HT-29 = tested on: HT-29
Hs-578T = tested on: Hs-578T
IGROV-1 = tested on: IGROV-1
K562 = tested on: K562
KM12 = tested on: KM12
LOX IMVI = tested on: LOX IMVI
M14 = tested on: M14
MCF7 = tested on: MCF7
MDA-MB-435 = tested on: MDA-MB-435
RPMI-8226 = tested on: RPMI-8226
RXF 393 = tested on: RXF 393
SF-539 = tested on: SF-539
SR = tested on: SR
U-251 = tested on: U-251
MDA-N = tested on: MDA-N

Structure (SMILES)	GI50 (CAKI-1)	GI50 (DU-145)	GI50 (EKVX)	GI50 (HCC 2998)	GI50 (HCT-15) [µM]	GI50 (HT-29)	GI50 (Hs-578T)	GI50 (IGROV-1)	GI50 (K562)	GI50 (KM12)	GI50 (LOX IMVI)	GI50 (M14)	GI50 (MCF7)	GI50 (MDA-MB-435)	GI50 (RPMI-8226)	GI50 (RXF 393)	GI50 (SF-539)	GI50 (SR)	GI50 (U-251)	GI50 (MDA-N)
OCc1ccc2c(c1)CC1(C2)Cc2cc3c(cc2C1O)CCC3 (centres undefined)	5.25 µM (inactive)	9.1 µM (inactive)	10.1 µM (inactive)	6.55 µM (inactive)	3.36	3.27 µM (inactive)	2.71 µM (inactive)	4.84 µM (inactive)	1.58 µM (inactive)	2.87 µM (inactive)	5.18 µM (inactive)	3.4 µM (inactive)	3.66 µM (inactive)	0.65 µM (active)	3.18 µM (inactive)	2.77 µM (inactive)	3.5 µM (inactive)	2.33 µM (inactive)	3.3 µM (inactive)	–
C=C1C(=O)OC2C1C(OC(=O)/C(C)=C\C)CC1(CO1)C1C(O)C=C(C)C21O (centres undefined)	2.04 µM (inactive)	–	12.8 µM (inactive)	4.63 µM (inactive)	2.81	13 µM (inactive)	–	14.5 µM (inactive)	4.72 µM (inactive)	11.5 µM (inactive)	14.4 µM (inactive)	2.63 µM (inactive)	–	–	4.56 µM (inactive)	2.73 µM (inactive)	2.61 µM (inactive)	4.83 µM (inactive)	12.2 µM (inactive)	–
c1ccc2c(c1)CC1=C(O2)c2ccccc2OC1	23.1 µM (inactive)	35.9 µM (inactive)	16.1 µM (inactive)	21.8 µM (inactive)	25.8	31.6 µM (inactive)	–	23.1 µM (inactive)	–	29.1 µM (inactive)	17.9 µM (inactive)	38.2 µM (inactive)	> 100 µM (inactive)	27.3 µM (inactive)	21.8 µM (inactive)	–	26.3 µM (inactive)	20.4 µM (inactive)	22.3 µM (inactive)	19.1 µM (inactive)
CC1(C)CC(=O)C2=C(C1)N(c1ccccc1)C1(O)C=CC(O)=C3C(=O)c4ccccc4C(=O)C321 (centres undefined)	26.2 µM (inactive)	74 µM (inactive)	55.6 µM (inactive)	30.2 µM (inactive)	30.8	21.2 µM (inactive)	–	26 µM (inactive)	14 µM (inactive)	23 µM (inactive)	21 µM (inactive)	40.5 µM (inactive)	27.7 µM (inactive)	20.7 µM (inactive)	22.3 µM (inactive)	19.8 µM (inactive)	27.4 µM (inactive)	8.57 µM (inactive)	32.9 µM (inactive)	–
O=C(CC(C(=O)c1ccsc1)c1ccsc1)c1ccsc1 (centres undefined)	> 100 µM (inactive)	> 100 µM (inactive)	75.2 µM (inactive)	> 100 µM (inactive)	61.4	77.6 µM (inactive)	> 100 µM (inactive)	> 100 µM (inactive)	54.6 µM (inactive)	42.7 µM (inactive)	79.8 µM (inactive)	50.2 µM (inactive)	70.6 µM (inactive)	44.6 µM (inactive)	33.5 µM (inactive)	–	> 100 µM (inactive)	36.5 µM (inactive)	> 100 µM (inactive)	–
COc1ccc(Oc2cccc(/C=C3/C(=O)Nc4ccccc43)c2)cc1	6.87 µM (inactive)	14.1 µM (inactive)	10.9 µM (inactive)	9.31 µM (inactive)	10.2	3.73 µM (inactive)	15.4 µM (inactive)	7.91 µM (inactive)	1.57 µM (inactive)	5.02 µM (inactive)	–	11.9 µM (inactive)	3.41 µM (inactive)	3.58 µM (inactive)	–	3.94 µM (inactive)	18.9 µM (inactive)	–	1.91 µM (inactive)	–
COc1ccc2c(c1)OCC1Cc3ccccc3OC21 (centres undefined)	> 100 µM (inactive)	> 100 µM (inactive)	49.9 µM (inactive)	> 100 µM (inactive)	> 100	> 100 µM (inactive)	–	> 100 µM (inactive)	> 100 µM (inactive)	74 µM (inactive)	> 100 µM (inactive)	69.5 µM (inactive)	> 100 µM (inactive)	> 100 µM (inactive)	75.7 µM (inactive)	–	> 100 µM (inactive)	> 100 µM (inactive)	> 10 µM (inactive)	> 10 µM (inactive)
CC1CN=C(N(C(=O)Nc2ccccc2)c2ccc(Cl)c(Cl)c2)S1 (centres undefined)	27.9 µM (inactive)	45.8 µM (inactive)	23.3 µM (inactive)	24.8 µM (inactive)	23.2	16.1 µM (inactive)	65 µM (inactive)	41.6 µM (inactive)	> 10 µM (inactive)	30.5 µM (inactive)	25.9 µM (inactive)	38.7 µM (inactive)	19.8 µM (inactive)	–	41.3 µM (inactive)	–	40.5 µM (inactive)	24.4 µM (inactive)	> 10 µM (inactive)	> 10 µM (inactive)
